# Reference: ChEMBL document CHEMBL1955733, “Optimization of 5-pyridazin-3-one phenoxypropylamines as potent, selective histamine H₃ receptor antagonists with potent cognition enhancing activity” (J Med Chem, 2012)
# The source made the active and inactive calls. The calls are words filed in the database; no cut-off is given here.
# Key:
# [1] = Half life in Sprague-Dawley rat at 1 mg/kg, iv and 5 mg/kg, po; assay type: ADME, organism-based; settings: in vivo
# [2] = Clearance in Sprague-Dawley rat at 1 mg/kg, iv and 5 mg/kg, po; assay type: ADME, organism-based; settings: in vivo
# [3] = Oral bioavailability in Sprague-Dawley rat at 5 mg/kg; assay type: ADME, organism-based; settings: in vivo
# [4] = biological target: Histamine H3 receptor (Rattus norvegicus, UniProt Q9QYN8); assay: Displacement of [3H]NAMH from rat cloned […] expressed in CHO cells; assay type: cell-based
# Chain of Histamine H3 receptor (Rattus norvegicus, UniProt Q9QYN8) (Q9QYN8 whole entry): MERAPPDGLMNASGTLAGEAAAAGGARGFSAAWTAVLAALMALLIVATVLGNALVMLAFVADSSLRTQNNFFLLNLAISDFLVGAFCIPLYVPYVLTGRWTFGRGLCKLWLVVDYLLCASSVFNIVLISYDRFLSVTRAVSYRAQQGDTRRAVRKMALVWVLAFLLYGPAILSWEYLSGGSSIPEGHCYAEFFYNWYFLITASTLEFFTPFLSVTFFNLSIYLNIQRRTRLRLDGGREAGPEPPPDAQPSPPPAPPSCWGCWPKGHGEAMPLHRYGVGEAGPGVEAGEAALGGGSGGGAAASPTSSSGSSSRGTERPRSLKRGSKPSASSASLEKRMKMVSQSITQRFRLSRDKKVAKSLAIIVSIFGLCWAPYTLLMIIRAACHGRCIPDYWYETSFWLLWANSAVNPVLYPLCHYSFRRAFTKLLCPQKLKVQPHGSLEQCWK
# [5] = Ratio of drug level in brain to plasma in Sprague-Dawley rat at 10 mg/kg, ip after 1 hr; assay type: ADME, organism-based; set-up: dose 10 mg/kg, route intraperitoneal; settings: brain and plasma, read-out: BPR
# [6] = biological target: Histamine H3 receptor (Homo sapiens, UniProt Q9Y5N1); assay: Displacement of [3H]NAMH from human cloned […] expressed in CHO cells; assay type: cell-based
# Chain of Histamine H3 receptor (Homo sapiens, UniProt Q9Y5N1) (Q9Y5N1 whole entry): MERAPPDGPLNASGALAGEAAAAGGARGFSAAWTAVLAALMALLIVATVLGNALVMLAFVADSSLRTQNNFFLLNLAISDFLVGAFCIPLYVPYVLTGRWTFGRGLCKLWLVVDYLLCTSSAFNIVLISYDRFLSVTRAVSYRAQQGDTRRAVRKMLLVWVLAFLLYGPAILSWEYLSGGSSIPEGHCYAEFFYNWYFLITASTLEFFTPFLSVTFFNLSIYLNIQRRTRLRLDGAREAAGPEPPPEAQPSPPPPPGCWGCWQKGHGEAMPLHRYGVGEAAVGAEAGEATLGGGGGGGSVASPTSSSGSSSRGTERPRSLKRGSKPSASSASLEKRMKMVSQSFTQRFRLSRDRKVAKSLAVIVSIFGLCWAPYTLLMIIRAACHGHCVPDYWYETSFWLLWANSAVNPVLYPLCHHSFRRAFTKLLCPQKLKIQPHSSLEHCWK
# [7] = Oral bioavailability in cynomolgus monkey at 3 mg/kg; assay type: ADME, organism-based, Macaca fascicularis; settings: in vivo
# [8] = Plasma protein binding in Sprague-Dawley rat; assay type: ADME, cell-free; settings: read-out: PPB (converted)
# [9] = biological target: T1, Cytochrome P450 1A2 (Homo sapiens, UniProt P05177); assay: Inhibition of CYP1A2; assay type: ADME
# T1 sequence (P05177 whole entry): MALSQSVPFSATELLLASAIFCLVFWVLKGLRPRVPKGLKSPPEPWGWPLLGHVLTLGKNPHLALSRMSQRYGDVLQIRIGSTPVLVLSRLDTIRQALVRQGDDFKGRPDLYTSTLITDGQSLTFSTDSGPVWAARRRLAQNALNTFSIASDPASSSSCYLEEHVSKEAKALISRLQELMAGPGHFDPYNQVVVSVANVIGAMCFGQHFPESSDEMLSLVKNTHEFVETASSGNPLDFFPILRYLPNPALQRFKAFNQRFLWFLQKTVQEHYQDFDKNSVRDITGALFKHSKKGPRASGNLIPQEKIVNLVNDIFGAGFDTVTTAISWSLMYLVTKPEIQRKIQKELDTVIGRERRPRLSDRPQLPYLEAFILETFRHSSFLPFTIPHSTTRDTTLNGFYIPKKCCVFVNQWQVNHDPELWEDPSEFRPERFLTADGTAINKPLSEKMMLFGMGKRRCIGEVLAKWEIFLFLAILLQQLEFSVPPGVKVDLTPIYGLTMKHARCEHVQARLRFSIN
# [10] = Half life in Beagle dog at 1 mg/kg, iv; assay type: ADME, organism-based, Canis lupus familiaris; set-up: dose 1 mg/kg, route intravenous; settings: in vivo
# [11] = Cmax in Beagle dog at 1 mg/kg, iv and 3 mg/kg, po; assay type: ADME, organism-based, Canis lupus familiaris; settings: in vivo
# [12] = Clearance in Sprague-Dawley rat at 1 mg/kg, iv and 10 mg/kg, po; assay type: ADME, organism-based; settings: in vivo
# [13] = Apparent permeability in human Caco2 cells; assay type: ADME, cell-based; settings: Caco-2
# [14] = Volume of distribution in Sprague-Dawley rat at 1 mg/kg, iv and 10 mg/kg, po; assay type: ADME, organism-based; settings: in vivo
# [15] = tested on: Salmonella typhimurium; assay: Mutagenic activity in Salmonella Typhimurium by Ames test; assay type: toxicity, organism-based; settings: salmonella enterica subsp. enterica serovar typhimurium
# [16] = Half life in cynomolgus monkey at 1 mg/kg, iv; assay type: ADME, organism-based, Macaca fascicularis; set-up: dose 1 mg/kg, route intravenous; settings: in vivo
# [17] = tested on: Mus musculus; assay: Toxicity in mouse assessed as changes in behavioral and physiologic state up to 300 mg/kg, po by Irwin test; assay type: organism-based; set-up: dose 300 mg/kg, route oral; settings: in vivo
# [18] = Volume of distribution in Beagle dog at 1 mg/kg, iv and 3 mg/kg, po; assay type: ADME, organism-based, Canis lupus familiaris; settings: in vivo
# [19] = Fraction unbound in Sprague-Dawley rat brain homogenate; assay type: ADME, tissue-based
# [20] = Oral bioavailability in Sprague-Dawley rat at 10 mg/kg; assay type: ADME, organism-based; settings: in vivo
# [21] = Clearance in cynomolgus monkey at 1 mg/kg, iv and 3 mg/kg, po; assay type: ADME, organism-based, Macaca fascicularis; settings: in vivo
# [22] = AUC in Sprague-Dawley rat at 10 mg/kg, po; assay type: ADME, organism-based; set-up: dose 10 mg/kg, route oral; settings: plasma
# [23] = biological target: Cytochrome P450 3A4 (Homo sapiens, UniProt P08684); assay: Inhibition of CYP3A4; assay type: ADME
# Chain of Cytochrome P450 3A4 (P08684 whole entry): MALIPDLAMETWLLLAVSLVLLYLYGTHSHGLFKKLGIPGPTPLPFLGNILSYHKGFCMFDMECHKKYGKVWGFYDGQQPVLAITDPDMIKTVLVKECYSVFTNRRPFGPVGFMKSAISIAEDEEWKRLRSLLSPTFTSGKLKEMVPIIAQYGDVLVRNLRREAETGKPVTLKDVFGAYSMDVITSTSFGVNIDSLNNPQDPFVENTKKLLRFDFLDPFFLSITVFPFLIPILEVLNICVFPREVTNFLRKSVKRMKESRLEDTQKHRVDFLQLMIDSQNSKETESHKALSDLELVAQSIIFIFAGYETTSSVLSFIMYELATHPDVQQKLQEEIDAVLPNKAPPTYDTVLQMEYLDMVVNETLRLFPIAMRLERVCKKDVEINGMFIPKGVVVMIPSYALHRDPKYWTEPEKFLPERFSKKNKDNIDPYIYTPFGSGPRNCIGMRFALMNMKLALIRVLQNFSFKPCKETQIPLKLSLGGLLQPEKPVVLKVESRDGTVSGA
# [24] = Half life in human; assay type: ADME, organism-based; settings: in vivo
# [25] = Half life in Beagle dog at 1 mg/kg, iv and 3 mg/kg, po; assay type: ADME, organism-based, Canis lupus familiaris; settings: in vivo
# [26] = tested on: Rattus norvegicus; assay: Cognitive effect in Sprague-Dawley rat social recognition model assessed as enhancement of short-term memory at 0.01 to 0.1 mg/kg, po measured after 120 mins; assay type: functional, organism-based
# [27] = biological target: Cytochrome P450 2C19 (Homo sapiens, UniProt P33261); assay: Inhibition of CYP2C19; assay type: ADME
# Chain of Cytochrome P450 2C19 (P33261 whole entry): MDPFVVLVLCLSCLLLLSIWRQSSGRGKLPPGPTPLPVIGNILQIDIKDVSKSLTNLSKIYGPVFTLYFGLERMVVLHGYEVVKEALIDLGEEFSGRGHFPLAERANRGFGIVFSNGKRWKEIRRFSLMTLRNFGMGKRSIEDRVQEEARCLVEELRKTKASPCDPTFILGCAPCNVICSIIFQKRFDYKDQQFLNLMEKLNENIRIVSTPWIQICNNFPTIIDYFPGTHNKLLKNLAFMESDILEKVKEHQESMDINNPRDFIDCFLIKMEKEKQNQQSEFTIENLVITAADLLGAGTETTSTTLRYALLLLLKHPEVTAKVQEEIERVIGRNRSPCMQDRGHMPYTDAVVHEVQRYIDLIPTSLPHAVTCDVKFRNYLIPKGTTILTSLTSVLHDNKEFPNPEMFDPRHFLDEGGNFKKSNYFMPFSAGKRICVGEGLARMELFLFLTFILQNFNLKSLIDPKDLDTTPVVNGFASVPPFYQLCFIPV
# [28] = Half life in cynomolgus monkey at 1 mg/kg, iv and 3 mg/kg, po; assay type: ADME, organism-based, Macaca fascicularis; settings: in vivo
# [29] = tested on: Rattus norvegicus; assay: Inhibition of RAMH-induced dispogenia in po dosed Long Evans rat measured for 30 mins; assay type: functional
# [30] = biological target: Cytochrome P450 2D6 (Homo sapiens, UniProt P10635); assay: Inhibition of CYP2D6; assay type: ADME
# Chain of Cytochrome P450 2D6 (P10635 whole entry): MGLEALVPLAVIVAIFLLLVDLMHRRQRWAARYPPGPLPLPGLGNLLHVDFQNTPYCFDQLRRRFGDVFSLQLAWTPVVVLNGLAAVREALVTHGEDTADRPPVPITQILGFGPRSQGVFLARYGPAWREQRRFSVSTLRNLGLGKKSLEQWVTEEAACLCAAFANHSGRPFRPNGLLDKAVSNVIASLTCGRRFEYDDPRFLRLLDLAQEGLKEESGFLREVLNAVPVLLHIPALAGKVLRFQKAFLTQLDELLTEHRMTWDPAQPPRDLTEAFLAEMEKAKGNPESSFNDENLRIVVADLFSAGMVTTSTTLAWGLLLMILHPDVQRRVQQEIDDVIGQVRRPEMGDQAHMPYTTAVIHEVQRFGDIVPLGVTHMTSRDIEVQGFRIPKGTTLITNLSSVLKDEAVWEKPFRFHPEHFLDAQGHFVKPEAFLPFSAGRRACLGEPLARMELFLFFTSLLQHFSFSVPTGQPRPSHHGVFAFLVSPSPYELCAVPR
# [31] = Solubility of the compound in water at pH 2; assay type: physicochemical
# [32] = Half life in Sprague-Dawley rat at 1 mg/kg, iv; assay type: ADME, organism-based; set-up: dose 1 mg/kg, route intravenous; settings: in vivo
# [33] = Solubility of the compound in water at pH 7.4; assay type: physicochemical
# [34] = Clearance in Beagle dog at 1 mg/kg, iv and 3 mg/kg, po; assay type: ADME, organism-based, Canis lupus familiaris; settings: in vivo
# [35] = AUC in cynomolgus monkey at 3 mg/kg, po; assay type: ADME, organism-based, Macaca fascicularis; set-up: dose 3 mg/kg, route oral; settings: plasma
# [36] = Half life in Sprague-Dawley rat at 1 mg/kg, iv and 10 mg/kg, po; assay type: ADME, organism-based; settings: in vivo
# [37] = Oral bioavailability in Beagle dog at 3 mg/kg; assay type: ADME, organism-based, Canis lupus familiaris; settings: in vivo
# [38] = biological target: Cytochrome P450 2C9 (Homo sapiens, UniProt P11712); assay: Inhibition of CYP2C9; assay type: ADME
# Chain of Cytochrome P450 2C9 (P11712 whole entry): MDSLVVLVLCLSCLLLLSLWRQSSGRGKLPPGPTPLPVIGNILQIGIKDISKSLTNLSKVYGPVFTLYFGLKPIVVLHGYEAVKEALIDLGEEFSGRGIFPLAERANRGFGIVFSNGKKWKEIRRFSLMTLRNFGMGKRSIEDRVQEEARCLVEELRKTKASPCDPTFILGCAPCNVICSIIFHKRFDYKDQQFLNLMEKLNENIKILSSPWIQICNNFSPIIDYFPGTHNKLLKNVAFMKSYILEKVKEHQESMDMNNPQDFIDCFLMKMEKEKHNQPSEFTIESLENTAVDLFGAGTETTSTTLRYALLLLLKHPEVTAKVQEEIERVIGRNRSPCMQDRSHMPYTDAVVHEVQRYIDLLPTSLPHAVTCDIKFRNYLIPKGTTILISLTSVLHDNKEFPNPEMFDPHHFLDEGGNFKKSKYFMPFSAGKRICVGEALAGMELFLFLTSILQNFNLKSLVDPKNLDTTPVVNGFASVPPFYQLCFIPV
# [39] = Cmax in cynomolgus monkey at 1 mg/kg, iv and 3 mg/kg, po; assay type: ADME, organism-based, Macaca fascicularis; settings: in vivo
# [40] = Plasma protein binding in human; assay type: ADME, cell-free; settings: read-out: PPB (converted)
# [41] = Volume of distribution in cynomolgus monkey at 1 mg/kg, iv and 3 mg/kg, po; assay type: ADME, organism-based, Macaca fascicularis; settings: in vivo
# [42] = AUC in Beagle dog at 3 mg/kg, po; assay type: ADME, organism-based, Canis lupus familiaris; set-up: dose 3 mg/kg, route oral; settings: plasma
# [43] = Cmax in Sprague-Dawley rat at 1 mg/kg, iv and 10 mg/kg, po; assay type: ADME, organism-based; settings: in vivo
# [44] = Plasma protein binding in Beagle dog; assay type: ADME, cell-free, Canis lupus familiaris; settings: read-out: PPB (converted)
smiles,measurement,setting,value
C[C@@H]1CCCN1CCCOc1ccc(-c2cnn(C)c(=O)c2)cc1,half-life,[1],60 min
same,clearance,[2],32 mL/min/kg
same,bioavailability,[3],19%
same,Ki,[4],5.5 nM
same,Kp at 1 h,[5],3.3
same,Ki,[6],1.9 nM
Cc1n[nH]c(=O)cc1-c1ccc(OCCCN2CCCCCC2)cc1,half-life,[1],60 min
same,clearance,[2],54 mL/min/kg
same,bioavailability,[3],25%
same,Ki,[4],7.5 nM
same,Kp at 1 h,[5],1.2
same,Ki,[6],4.8 nM
Cc1n[nH]c(=O)cc1-c1ccc(OCCCN2CCC[C@H]2C)cc1,half-life,[1],84 min
same,clearance,[2],25 mL/min/kg
same,bioavailability,[3],20%
same,Ki,[4],5.1 nM
same,Kp at 1 h,[5],1.6
same,Ki,[6],1.6 nM
Cn1ncc(-c2ccc(OCCCN3CCCCC3)cc2)cc1=O,half-life,[1],36 min
same,clearance,[2],75 mL/min/kg
same,bioavailability,[3],40%
same,Ki,[4],30 nM
same,Kp at 1 h,[5],5.3
same,Ki,[6],13 nM
Cn1ncc(-c2ccc(OCCCN3CCCCCC3)cc2)cc1=O,Ki,[4],22 nM
same,Ki,[6],8.1 nM
O=c1cc(-c2ccc(OCCCN3CCCCCC3)cc2)cnn1-c1ccccn1,half-life,[1],108 min
same,clearance,[2],25 mL/min/kg
same,bioavailability,[3],28%
same,Ki,[4],12 nM
same,Kp at 1 h,[5],1.8
same,Ki,[6],5.3 nM
C[C@@H]1CCCN1CCCOc1ccc(-c2cnn(-c3ccccn3)c(=O)c2)cc1,bioavailability,[7],96%
same,fraction unbound,[8],0.55
same,IC50,[9],> 30 µM
same,half-life,[10],216 min
same,Cmax,[11],417 ng/mL
same,clearance,[12],20 mL/min/kg
same,Papp,[13],13.7 ×10⁻⁶ cm/s
same,Vd,[14],3 L/kg
same,Activity,[15],Toxic
same,half-life,[16],234 min
same,half-life,[1],102 min
same,Activity,[17],Non-toxic
same,clearance,[2],19 mL/min/kg
same,Vd,[18],5.9 L/kg
same,fraction unbound,[19],0.39
same,bioavailability,[20],78%
same,clearance,[21],21 mL/min/kg
same,AUC,[22],6800 ng·h/mL
same,IC50,[23],> 30 µM
same,half-life,[24],> 40 min
same,half-life,[25],48 min
same,Activity,[26],Active
same,IC50,[27],> 30 µM
same,half-life,[28],390 min
same,inhibition,[29],Dose-dependent effect
same,ED50,[29]; 0.5 h,0.07 mg/kg
same,Kp at 1 h,[5],1.1
same,IC50,[30],> 30 µM
same,solubility,[31],1400 µg/mL
same,half-life,[32],102 min
same,solubility,[33],900 µg/mL
same,clearance,[34],19 mL/min/kg
same,AUC,[35],2080 ng·h/mL
same,half-life,[36],270 min
same,bioavailability,[37],92%
same,IC50,[38],> 30 µM
same,Cmax,[39],326 ng/mL
same,fraction unbound,[40],0.56
same,Vd,[41],7.1 L/kg
same,AUC,[42],2400 ng·h/mL
same,Cmax,[43],898 ng/mL
same,fraction unbound,[44],0.68
C[C@@H]1CCCN1CCCOc1ccc(-c2ccc(=O)[nH]n2)cc1 [IRDABISANT],bioavailability,[20],83%
same,Ki,[4],8.5 nM
same,Kp at 1 h,[5],2.6
Cc1n[nH]c(=O)cc1-c1ccc(OCCCN2CCCCC2)cc1,half-life,[1],48 min
same,clearance,[2],30 mL/min/kg
same,bioavailability,[3],28%
same,Ki,[4],23 nM
same,Kp at 1 h,[5],1.3
same,Ki,[6],7.9 nM
Cc1nn(C)c(=O)cc1-c1ccc(OCCCN2CCC[C@H]2C)cc1,half-life,[1],72 min
same,clearance,[2],67 mL/min/kg
same,bioavailability,[3],53%
same,Ki,[4],6.5 nM
same,Kp at 1 h,[5],1.7
same,Ki,[6],2 nM
